Measurements published in patent US7273877B2, “5-substituted-4-[(substituted phenyl) amino]-2-pyridone derivatives” (Warner-Lambert Company, LLC, priority 2003, dated 2007).

Legend:
[1] = test system: phosphorylation of MAP kinase (ERK) in murine colon 26 (C26) carcinoma cells; assay: Cellular inhibition of ERK phosphorylation, C26ELSA (pERK ELISA format); assay type: cell-based; conditions: Mus musculus, 1 h, C26 cells treated with test compound for one hour at 37° C.
Method: (§1) MEK inhibitors were evaluated by determining their ability to inhibit phosphorylation of MAP kinase (ERK) in murine colon 26 (C26) carcinoma cells. Since ERK1 and ERK2 represent the only known substrates for MEK1and MEK2, the measurement of inhibition of ERK phosphorylation in cells provides direct read out of cellular MEK inhibition by the compounds of the invention. Detection of phosphorylation of ERK was carried out either by Western blot or ELISA format. Briefly, the assays involve treatment of exponentially growing C26 cells with varying concentrations of the test compound (or vehicle control) for one hour at 37° C. For Western blot assay, cells were rinsed free of compound/vehicle and lysed in a solution containing 70 mM NaCl, 50 mM glycerol phosphate, 10 mM HEPES, pH 7.4, 1% Triton X-100, 1 mM Na3VO4, 100 μM PMSF, 10 μM leupeptin and 10 μM pepstatin. Supernatants were then subjected to gel electrophoresis and hybridized to a primary antibody recognizing dually phosphorylated ERK1 and ERK2. To evaluate total MAPK levels, blots were subsequently ‘stripped’ and re-probed with a 1:1 mixture of polyclonal antibodies recognizing unphosphorylated ERK1 and ERK2. For pERK ELISA assay, pERK TiterZyme Enzyme immunometric Assay kits were acquired from Assay Designs, Inc (Ann Arbor, Mich.). Briefly, cells were harvested in lysis solution containing 50 mM β-glycerophosphate, 10 mM HEPES, ph7.4, 70 mM NaCl, 2 mM EDTA and 1% SDS and protein lysates were diluted 1:15 with supplied Assay buffer prior to the execution of the assay. The subsequent steps were carried out essentially as recommended by the manufacturer.
(§2) The inhibition data generated by the above protocols is disclosed in Table I. If several concentrations of inhibitor were tested, IC50 values (the concentration which gives 50% inhibition) were determined graphically from the dose response curve for % inhibition. Otherwise, percent inhibitions at measured concentrations are reported.

[2] = test system: phosphorylation of MAP kinase (ERK) in murine colon 26 (C26) carcinoma cells; assay: Cellular inhibition of ERK phosphorylation, C26CPA1; assay type: cell-based; conditions: Mus musculus, 1 h; C26 cells treated with test compound for one hour at 37° C.
Method: as §1, §2

Row | Compound | melting point [°C] | IC50 [1] [nM] | IC50 [2] [nM]
1 | Cn1cc(C(=O)NOCCO)c(Nc2ccc(I)cc2F)cc1=O [Example 1, 4-(2-Fluoro-4-iodoanilino)-N-(2-hydroxyethoxy)-1-methyl-6-oxo-1,6-dihydro-3-pyridinecarboxamide] | 148 to 151 | 4.9 | 43.8
2 | Cn1cc(C(=O)NCCCO)c(Nc2ccc(I)cc2F)cc1=O [Example 5, 4-(2-Fluoro-4-iodoanilino)-N-(3-hydroxypropyl)-1-methyl-6-oxo-1,6-dihydro-3-pyridinecarboxamide] | 81 to 86 |  | 60
3 | NC(=O)c1cn(CC(O)CO)c(=O)cc1Nc1ccc(I)cc1F (stereo not drawn) [Example 31, 1-(2,3-Dihydroxypropyl)-4-(2-fluoro-4-iodoanilino)-6-oxo-1,6-dihydro-3-pyridinecarboxamide] | 210 to 213 |  | 1410
4 | Cn1cc(C(=O)NCCCO)c(Nc2ccc3ccccc3c2)cc1=O [Example 42, N-(3-Hydroxypropyl)-1-methyl-4-(2-naphthylamino)-6-oxo-1,6-dihydro-3-pyridinecarboxamide] | 78 to 83 | 93 | 
5 | Cn1cc(C(=O)NC(CO)(CO)CO)c(Nc2ccc(I)cc2F)cc1=O [Example 47, 4-(2-Fluoro-4-iodoanilino)-N-[2-hydroxy-1,1-bis(hydroxymethyl)ethyl]-1-methyl-6-oxo-1,6-dihydro-3-pyridinecarboxamide] | 100 to 105 | ≥ 5000 | 
6 | Cn1cc(C(=O)OCC(N)(CO)CO)c(Nc2ccc(I)cc2F)cc1=O [Example 48, 2-Amino-3-hydroxy-2-(hydroxymethyl)propyl-4-(2-fluoro-4-iodoanilino)-1-methyl-6-oxo-1,6-dihydro-3-pyridinecarboxylate] | 117 to 122 | ≥ 5000 | 
7 | CNC(=O)c1cn(C)c(=O)cc1Nc1ccc(I)cc1F [Example 51, 4-(2-Fluoro-4-iodoanilino)-N,1-dimethyl-6-oxo-1,6-dihydro-3-pyridinecarboxamide] | 252 to 254 | ≥ 5000 | 

Further lines, results first:

Row | melting point [°C] | IC50 [1] [nM] | IC50 [2] [nM] | Compound
8 | 153 to 154 | ≥ 5000 |  | CCOC(=O)c1cn(C)c(=O)cc1Nc1ccc(C)c(C)c1 [Example 57, 4-(3,4-Dimethyl-phenylamino)-1-methyl-6-oxo-1,6-dihydro-pyridine-3-carboxylic acid ethyl ester]
9 | 141 to 143 | 3900 |  | CCOC(=O)c1cn(C)c(=O)cc1Nc1ccc2c(c1)CCC2 [Example 58, 4-(Indan-5-ylamino)-1-methyl-6-oxo-1,6-dihydro-pyridine-3-carboxylic acid ethyl ester]
10 |  |  | 76 | Cn1cc(C(N)=O)c(Nc2ccc(Cl)c(Cl)c2Cl)cc1=O [Example 67, 1-Methyl-6-oxo-4-(2,3,4-trichloro-phenylamino)-1,6-dihydro-pyridine-3-carboxylic acid amide]
11 |  |  | 2820 | CSc1ccc(Nc2cc(=O)n(C)cc2C(=O)NC(CO)CO)c(F)c1 [Example 89, 4-(2-Fluoro-4-methylsulfoanyl-phenylamino)-1-methyl-6-oxo-1,6, dihydro-pyridine-3-carboxylic acid (2-hydroxy-1-hydroxymethyl-ethyl)-amide]
